Some test systems named below: OVCAR-3 ovarian; TK-10 renal; U251 CNS; OVCAR-5 ovarian; RPMI-8226 leukemia; NCI-H226 lung; MDA-MB-435; HL-60(TB) leukemia; LOX IMVI melanoma; SNB-19 CNS; MOLT-4 leukemia; SW-620 colon; SN12C renal; HS 578T breast; PC-3 prostate; SNB-75 CNS; KM12 colon; K-562 leukemia; A498 renal; NCI-H23 lung.
What all share (experiment): NCI anticancer screen, dose series, 48 h

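Assay format: 96-well plates, 48-hour exposure. At the TGI there is no net growth.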

With `N#CC1(C#N)[C@@H]2CCC=C(Sc3ccccc3)[C@@H]21`, the TGI with OVCAR-3 ovarian was 31.1 µM; in the test with TK-10 renal, 28.9 µM; with U251 CNS, 30.1 µM; in the test with OVCAR-5 ovarian it was 32 µM; in the test with RPMI-8226 leukemia it was above 100 µM; in the test on NCI-H226 lung it was 36.3 µM. The TGI was determined as 26.8 µM with MDA-MB-435; 49.9 µM in the test with HL-60(TB) leukemia; 36.8 µM with LOX IMVI melanoma; 97.9 µM in the test on SNB-19 CNS; 85.9 µM in the test on MOLT-4 leukemia; 26 µM with SW-620 colon. In addition, the TGI in the test with SN12C renal is 32.3 µM; in the test on HS 578T breast, above 100 µM; with PC-3 prostate, 27.5 µM; in the test with SNB-75 CNS it was 47.2 µM; in the test with KM12 colon, 28.5 µM; in the test with K-562 leukemia, above 100 µM. Also, in the test on A498 renal, the TGI is above 100 µM.

As to `c1cc(C2=NCCO2)c2ccsc2c1`, the TGI with OVCAR-3 ovarian, in the test on TK-10 renal, in the test on U251 CNS, in the test with OVCAR-5 ovarian, in the test with RPMI-8226 leukemia and in the test on NCI-H23 lung was above 100 µM in each case. Further, the TGI with NCI-H226 lung, in the test with MDA-MB-435, with HL-60(TB) leukemia, with LOX IMVI melanoma, in the test with SNB-19 CNS and in the test with MOLT-4 leukemia was above 100 µM each time. The TGI with SW-620 colon was above 100 µM; in the test on SN12C renal, above 100 µM; in the test on HS 578T breast, 49.8 µM; with PC-3 prostate it was above 100 µM; in the test on SNB-75 CNS, 99.1 µM; in the test with KM12 colon, above 100 µM. Also, the TGI with K-562 leukemia and with A498 renal was above 100 µM each time.

For `CN(C)c1ccc(C2CC(=O)CC(c3ccc(N(C)C)cc3)C23C(=O)NC(=S)NC3=O)cc1` (stereo not drawn), the TGI in the test on OVCAR-3 ovarian, with TK-10 renal, in the test with U251 CNS, in the test with OVCAR-5 ovarian, in the test on RPMI-8226 leukemia and in the test with NCI-H23 lung was above 100 µM throughout. Besides, the TGI with NCI-H226 lung, with MDA-MB-435, with HL-60(TB) leukemia, with LOX IMVI melanoma, with SNB-19 CNS and with MOLT-4 leukemia was above 100 µM in each case. For the same molecule, the TGI in the test with SW-620 colon was above 100 µM; in the test with SN12C renal, above 100 µM; in the test on HS 578T breast, above 100 µM; in the test on PC-3 prostate, above 100 µM; with SNB-75 CNS, 31.2 µM; with KM12 colon, above 100 µM. For the same molecule, the TGI in the test with K-562 leukemia and in the test on A498 renal was above 100 µM throughout.

As for `COc1ccc2nc3cc([N+](=O)[O-])ccc3c(Nc3ccc(S(=O)(=O)Nc4ncccn4)cc3)c2c1`, the TGI with OVCAR-3 ovarian was above 100 µM; in the test on TK-10 renal, above 100 µM; with U251 CNS it was above 100 µM; in the test on OVCAR-5 ovarian, above 100 µM; in the test with RPMI-8226 leukemia it was above 66.1 µM; with NCI-H23 lung it was above 23.2 µM. The TGI in the test with NCI-H226 lung was above 100 µM; in the test with MDA-MB-435, above 100 µM; in the test with HL-60(TB) leukemia it was above 100 µM; in the test on LOX IMVI melanoma it was above 100 µM; in the test on SNB-19 CNS it was above 53.6 µM; in the test with MOLT-4 leukemia, above 48.3 µM. Further, the TGI with SW-620 colon is above 100 µM; in the test on SN12C renal it was above 100 µM; in the test with HS 578T breast, 92.4 µM; in the test on PC-3 prostate, above 100 µM; in the test on SNB-75 CNS it was above 100 µM; in the test with KM12 colon, above 100 µM. For the same molecule, the TGI was above 88.2 µM in the test with K-562 leukemia and above 81.3 µM in the test with A498 renal.

Take `C1=CCC[C@@H]2CN3CCCC/C=C\CCCC[C@H]4C[C@H](CN(CCCCCCCC1)C4)[C@H]2CC3`: the TGI in the test with OVCAR-3 ovarian stood at 15.2 µM; with TK-10 renal, 15.8 µM; in the test with U251 CNS, 15.4 µM; with OVCAR-5 ovarian, 23.7 µM; with RPMI-8226 leukemia it was 16.7 µM; in the test with NCI-H23 lung, 34.5 µM. Moreover, the TGI is above 50 µM in the test on NCI-H226 lung; 15.7 µM in the test on MDA-MB-435; 28.4 µM in the test with HL-60(TB) leukemia; 16 µM with LOX IMVI melanoma; 22.2 µM in the test on SNB-19 CNS; 21.2 µM with MOLT-4 leukemia. Moreover, the TGI is 16.4 µM in the test on SW-620 colon; 21 µM with SN12C renal; 20.2 µM with HS 578T breast; 41.2 µM with PC-3 prostate; 16.5 µM in the test on SNB-75 CNS; 15.6 µM in the test with KM12 colon. Further, the TGI in the test with K-562 leukemia is 24 µM; in the test with A498 renal it was 30.3 µM.

On to `COc1ccc(N/N=C/C2=CC(C)(C)C(C#N)(C#N)C(O)=C2C#N)cc1`, for which the TGI with OVCAR-3 ovarian, in the test with TK-10 renal, with U251 CNS, in the test on OVCAR-5 ovarian, in the test on RPMI-8226 leukemia and in the test on NCI-H23 lung was above 100 µM each time. The TGI with NCI-H226 lung, in the test on MDA-MB-435, in the test with HL-60(TB) leukemia, with LOX IMVI melanoma, in the test with SNB-19 CNS and in the test with MOLT-4 leukemia was above 100 µM in each case. Besides, the TGI with SW-620 colon, in the test on SN12C renal, with HS 578T breast, in the test with PC-3 prostate, with SNB-75 CNS and in the test on KM12 colon was above 100 µM each time. Moreover, the TGI is above 100 µM in the test on K-562 leukemia and 81 µM in the test on A498 renal.

As to `COC(=O)/C=C\C(C#N)(C#N)N=Cc1cccs1`, the TGI was 25.1 µM with OVCAR-3 ovarian; 3.43 µM in the test on TK-10 renal; above 53.3 µM in the test with U251 CNS; 22.1 µM with OVCAR-5 ovarian; 7.36 µM with RPMI-8226 leukemia; 27.3 µM with NCI-H23 lung. The TGI in the test with NCI-H226 lung was 20.7 µM; in the test with MDA-MB-435 it was 18 µM; in the test on HL-60(TB) leukemia it was 4.2 µM; in the test with LOX IMVI melanoma it was 6.68 µM; with SNB-19 CNS, above 56.5 µM; in the test on MOLT-4 leukemia it was above 24.5 µM. The TGI is 38.7 µM in the test with SN12C renal; 78.3 µM with HS 578T breast; 26 µM in the test on PC-3 prostate; 29.3 µM in the test with SNB-75 CNS; 37.8 µM with KM12 colon; above 100 µM with K-562 leukemia. The molecule also yielded a TGI in the test on A498 renal of 34.3 µM.
